Results reported in the supplement of paper PMC6045584.
± gives the standard deviation of the averaged measurements.

Tests used:
[1] = compound: T1, CCCCCCCCCCCCCCCC(=O)Nc1ccn([C@@H]2O[C@H](CO)[C@@H](O)[C@@H]2C#N)c(=O)n1 [SAPACITABINE]; experiment: area under dose-response curve of surviving fraction (unscaled, Aref=0) (surviving fraction x log10(nM)); higher = more resistant; settings: exposure time: 5 days; dose range 0.5-1000 nM
Procedure, shortened: (§1)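 Surviving fractions were fitted by 3-parameter logistic regression in the drc R package to give dose-response survival curves. They came from tumour cell lines treated for five days with eight inhibitor concentrations from 0.5 to 1000 nM and read by CellTiter-Glo luminescence against DMSO-only wells. The area under the curve is the unscaled activity area. It was calculated over log10 dose with Aref = 0.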

[2] = compound: T2, CC[C@@H]1C(=O)N(C)c2cnc(Nc3ccc(C(=O)NC4CCN(C)CC4)cc3OC)nc2N1C1CCCC1 [BI-2536]; experiment: as above; settings: exposure time: 5 days; dose range 0.5-1000 nM
Procedure, shortened: as §1

[3] = compound: Cn1cc(C2=Nc3cc(NC(=O)C(N)C4CCCCC4)cc4c3C2=CNNC4=O)cn1; experiment: as above; settings: exposure time: 5 days; dose range 0.5-1000 nM
Procedure, shortened: as §1

[4] = compound: T3, CN(C)C/C=C/C(=O)Nc1cc2c(Nc3ccc(F)c(Cl)c3)ncnc2cc1O[C@H]1CCOC1 [AFATINIB]; experiment: as above; settings: exposure time: 5 days; dose range 0.5-1000 nM
Procedure, shortened: as §1

[5] = compound: T4, Nc1nc2[nH]cnc2c(=S)[nH]1 [TIOGUANINE]; experiment: as above; settings: exposure time: 5 days; dose range 0.5-1000 nM
Procedure, shortened: as §1

[6] = compound: T5, CC1(C)CC(=O)c2c(C(F)(F)F)nn(-c3ccc(C(N)=O)c(N[C@H]4CC[C@H](OC(=O)CN)CC4)c3)c2C1 [SNX-5422]; experiment: as above; settings: exposure time: 5 days; dose range 0.5-1000 nM
Procedure, shortened: as §1

[7] = compound: T6, CNC(=O)c1ccc(N2C(=S)N(c3ccc(C#N)c(C(F)(F)F)c3)C(=O)C2(C)C)cc1F [MDV3100]; experiment: as above; settings: exposure time: 5 days; dose range 0.5-1000 nM
Procedure, shortened: as §1

[8] = compound: T1, SAPACITABINE; experiment: surviving fraction relative to DMSO-only wells; higher = less growth inhibition; settings: exposure time: 5 days
Procedure, shortened: (§2)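 After seeding at 250–500 cells per well in 384-well plates and a 24-hour wait, log-phase tumour cell lines were exposed without interruption for five days to inhibitors at 0.5, 1, 5, 10, 50, 100, 500 and 1000 nM. CellTiter-Glo luminescence was recorded after 10 minutes at room temperature. Viability is reported as surviving fraction, the luminescence normalised to the median of DMSO-only wells.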

[9] = compound: T2, BI-2536; experiment: as above; settings: exposure time: 5 days
Procedure, shortened: as §2

[10] = compound: Cn1cc(C2=Nc3cc(NC(=O)C(N)C4CCCCC4)cc4c3C2=CNNC4=O)cn1; experiment: as above; settings: exposure time: 5 days
Procedure, shortened: as §2

[11] = compound: T3, AFATINIB; experiment: as above; settings: exposure time: 5 days
Procedure, shortened: as §2

[12] = compound: C=CC(=O)Nc1cc2c(Nc3ccc(F)c(Cl)c3)ncnc2cc1OCCCN1CCOCC1 [CANERTINIB]; experiment: as above; settings: exposure time: 5 days
Procedure, shortened: as §2

[13] = compound: T4, TIOGUANINE; experiment: as above; settings: exposure time: 5 days
Procedure, shortened: as §2

[14] = compound: T5, SNX-5422; experiment: as above; settings: exposure time: 5 days
Procedure, shortened: as §2

[15] = compound: T6, MDV3100; experiment: as above; settings: exposure time: 5 days
Procedure, shortened: as §2

LNCAP PROSTATE was tested, and the “area under dose-response curve” value [1] was 2.15, the “area under dose-response curve” value [2] was 0.892 and the “area under dose-response curve” value [3] was 3.06. The “area under dose-response curve” value [4] was 3.17, the “area under dose-response curve” value [5] was 3.21 and the “area under dose-response curve” value [6] was 1.64. The “area under dose-response curve” value [7] was 3.01, the surviving fraction ([8]; 0.5 nM) was 1.04 ± 0.033 and the surviving fraction ([8]; 1 nM) was 1.09 ± 0.059. The surviving fraction ([8]; 5 nM) was 0.998 ± 0.053, the surviving fraction ([8]; 10 nM) was 0.913 ± 0.031 and the surviving fraction ([8]; 50 nM) was 0.51 ± 0.012. The surviving fraction ([8]; 100 nM) was 0.329 ± 0.035, the surviving fraction ([8]; 500 nM) was 0.208 ± 0.014 and the surviving fraction ([8]; 1000 nM) was 0.159 ± 0.012. It also gave a surviving fraction ([9]; 0.5 nM) of 1.05 ± 0.099, a surviving fraction ([9]; 1 nM) of 1.03 ± 0.08 and a surviving fraction ([9]; 5 nM) of 0.0577 ± 0.0084. For the same test system, the surviving fraction ([9]; 10 nM) was 0.0533 ± 0.0055, the surviving fraction ([9]; 50 nM) was 0.113 ± 0.018 and the surviving fraction ([9]; 100 nM) was 0.115 ± 0.028. It also gave a surviving fraction ([9]; 500 nM) of 0.141 ± 0.022, a surviving fraction ([9]; 1000 nM) of 0.112 ± 0.013 and a surviving fraction ([10]; 0.5 nM) of 0.922 ± 0.12. It also gave a surviving fraction ([10]; 1 nM) of 1.11 ± 0.11, a surviving fraction ([10]; 5 nM) of 0.926 ± 0.14 and a surviving fraction ([10]; 10 nM) of 0.915 ± 0.15. It also gave a surviving fraction ([10]; 50 nM) of 1.23 ± 0.052, a surviving fraction ([10]; 100 nM) of 1.06 ± 0.12 and a surviving fraction ([10]; 500 nM) of 0.544 ± 0.024. The surviving fraction ([10]; 1000 nM) was 0.287 ± 0.031, the surviving fraction ([11]; 0.5 nM) was 1.03 ± 0.093 and the surviving fraction ([11]; 1 nM) was 0.998 ± 0.083. The surviving fraction ([11]; 5 nM) was 0.995 ± 0.062, the surviving fraction ([11]; 10 nM) was 0.922 ± 0.073 and the surviving fraction ([11]; 50 nM) was 0.892 ± 0.11. It also gave a surviving fraction ([11]; 100 nM) of 1.01 ± 0.069, a surviving fraction ([11]; 500 nM) of 0.854 ± 0.1 and a surviving fraction ([11]; 1000 nM) of 0.649 ± 0.051. For the same test system, the surviving fraction ([12]; 0.5 nM) was 1.1 ± 0.078, the surviving fraction ([12]; 1 nM) was 1 ± 0.059 and the surviving fraction ([12]; 5 nM) was 1.09 ± 0.06. For the same test system, the surviving fraction ([12]; 10 nM) was 1.08 ± 0.036, the surviving fraction ([12]; 50 nM) was 1.01 ± 0.057 and the surviving fraction ([12]; 100 nM) was 1.04 ± 0.055. The surviving fraction ([12]; 500 nM) was 0.935 ± 0.093, the surviving fraction ([12]; 1000 nM) was 0.782 ± 0.086 and the surviving fraction ([13]; 0.5 nM) was 0.933 ± 0.078. The surviving fraction ([13]; 1 nM) was 0.912 ± 0.028, the surviving fraction ([13]; 5 nM) was 0.955 ± 0.17 and the surviving fraction ([13]; 10 nM) was 0.964 ± 0.09. It also gave a surviving fraction ([13]; 50 nM) of 1.07 ± 0.11, a surviving fraction ([13]; 100 nM) of 0.976 ± 0.085 and a surviving fraction ([13]; 500 nM) of 0.971 ± 0.06. For the same test system, the surviving fraction ([13]; 1000 nM) was 0.977 ± 0.07, the surviving fraction ([14]; 0.5 nM) was 0.905 ± 0.09 and the surviving fraction ([14]; 1 nM) was 0.969 ± 0.13. It also gave a surviving fraction ([14]; 5 nM) of 0.79 ± 0.043, a surviving fraction ([14]; 10 nM) of 0.774 ± 0.12 and a surviving fraction ([14]; 50 nM) of 0.19 ± 0.022. It also gave a surviving fraction ([14]; 100 nM) of 0.124 ± 0.0057, a surviving fraction ([14]; 500 nM) of 0.05 ± 0.004 and a surviving fraction ([14]; 1000 nM) of 0.06 ± 0.0072. It also gave a surviving fraction ([15]; 0.5 nM) of 1.05 ± 0.15, a surviving fraction ([15]; 1 nM) of 0.962 ± 0.035 and a surviving fraction ([15]; 5 nM) of 0.912 ± 0.089. The surviving fraction ([15]; 10 nM) was 0.957 ± 0.13, the surviving fraction ([15]; 50 nM) was 0.979 ± 0.012 and the surviving fraction ([15]; 100 nM) was 0.925 ± 0.053. For the same test system, the surviving fraction ([15]; 500 nM) was 0.663 ± 0.033 and the surviving fraction ([15]; 1000 nM) was 0.497 ± 0.079.
